We go through 2 compounds from patent publication US20170258943A1, “Using Heavy Water as a Contrast Agent for Hydrogen Magnetic Resonance Imaging” (National Tsing Hua University, priority 2014, published 2017).

The conditions of data set [1]: patients having kidney diseases; cited from earlier work.
The conditions of data set [2]: amount of injected D2O less than 20% of body weight; cited from earlier work.
Data set [3] can be described thus: T1 and T2 relaxation rates of H in D2O concentration phantom. It counts as physicochemical. The note with it: FIG. 1A. The method, then: The R1 and R2 in the vertical axis are the relaxation rates of T1 and T2 relaxation, respectively.
In an experimental phantom with D2O concentration as c, respective concentrations of H2O, HDO, and D2O are (1-c)^2, 2c(1-c), and c^2, where a part of c of H is replaced by D. Population ratio of H coupled H and D coupled H is calculated as (1-c):c. The observed T1 and T2 relaxation rates are the population weighted sums of all H. Since the D coupled H has slower relaxation rates than H coupled H, we observe linear relations of R1 and R2 as changing the D2O concentration c in FIG. 1A and FIG. 1B.

Data set [4] in a line: Dynamic H MRI of rat brain after intravenous injection of contrast agent. It counts as in vivo, Sprague-Dawley rats. The following applies: whole brain ROI, 1.5 mL D2O into tail vein (about 0.6% of body weight), 4.7 T. The method, then: Please refer to FIG. 2A and FIG. 2B, which are views showing consecutive MRI images and a curve of signal change. As shown in the figures, 6 normal adult Sprague-Dawley rats (˜200-310 g) are used. Each rat is anesthetized with 1.5% isoflurane/air via a nose cone with respiratory monitoring. Tail vein catheterization is performed with a 0.8-m long polyethylene tube connected to a 23-gaude needle, where a dead volume in a catheter is about 0.2 ml. On operating, 1.5 mL of D2O (99.8%, Cambridge Isotope, Woburn, Mass.) is manually injected into tail vein. After injecting, the catheter is flushed with 0.5 mL 0.9% NaCl solution. For comparison, an additional 0.2 mL Gd-DTPA (Magnevist) is manually injected into tail vein while D2O scanning is completed after 10 min. After injection, the catheter is flushed with 0.5 mL 0.9% NaCl solution. In vivo brain imaging is performed in prone position. All images are acquired on a 4.7 animal MRI scanner (Bruker Biospec 47/40). The parameters for the dynamic images are as follow: TR/TE/θ=1000 ms/30 ms/90 degree, FOV=2.9 cm, matrix size=128×128, and slice thickness=1 mm. Averaged signals from whole brain are portrayed as a signal-intensity curve. For comparison, the signal-intensity curve is transferred into a percentage change curve according to the following formula: Therein, S(t) is a signal at time t and S0 is a signal before using the contrast agent. […]

With `O=C([O-])CN(CCN(CC(=O)[O-])CC(=O)O)CCN(CC(=O)[O-])CC(=O)O.[Gd+3]` [Gd-DTPA], the “nephrogenic systemic fibrosis (NSF)” value in data set [1] is given as “possible to cause nephrogenic systemic fibrosis (NSF)”.
On to `[2H]O[2H]` [D2O, deuterium oxide], for which the toxicity to animals result in data set [2] is recorded as “not toxic”. The “T1 relaxation rate (R1) of H versus D2O concentration” value in data set [3] is “linearly decreased”. Further, the signal change in data set [4] came to 10%.
